Results: US10149879B2 (priority 2014, dated 2018)

Assays:
Assay type in all cases: in vivo, rats
Adipocyte = experiment: Reduction in hypertrophy of adipocyte; settings: H.G. animals; standard drug
Protocol: (§1) Before utilizing the test drug for human consumption the pre-clinical safety and efficacy profile of single plant candidate extract as well as in combined form was conducted following standard norms. The biological property of test formulation was validated in streptozotocin (STZ) induced diabetes animal model which also helped in evaluation of vascular complications caused due to diabetes. The effect of test drug was assessed on glucose levels, insulin level, glycosylated hemoglobin, and pro-inflammatory cytokines, and the most important bio-marker neopterin including various neuro-psychological assessments. The mechanism based study clearly indicated the neopterin decreasing potential of test formulation which exerted neuro-protective activity, better glycemic control, anti-atherosclerotic, anti-inflammatory, anti-oxidant effects in STZ induced diabetes among the animals. Further, its therapeutic activity has also been validated in neurogenic dementia and other cognitive deficits associated with diabetes mellitus. Reduction in hypertrophy of Adipocyte on Treated with Test Formulation

TBARS = experiment: Attenuation of oxidative stress: TBARS formation; parameters: TBARS formation, Brain / TBARS formation, Heart / TBARS formation, Liver / TBARS formation, Kidney: unit not given here; settings: H.G. animals; standard drug
Protocol: as §1, with “Attenuation” for “Reduction in hypertrophy”, “Oxidative Stress Following Treatment” for “Adipocyte on Treated”, “Formation—Reduction in TBARS Formation” for “Formulation”

HDL-c, VLDL-c, LDL-c = experiment: Lipoprotein profile and assessment of atherosclerosis; parameters: HDL-c / VLDL-c / LDL-c: unit not given here; settings: H.G. animals; standard drug
Protocol: (§2) Before utilizing the test drug for human consumption the pre-clinical safety and efficacy profile of single plant candidate extract as well as in combined form was conducted following standard norms. […] The effect of test drug was assessed on glucose levels, insulin level, glycosylated hemoglobin, and pro-inflammatory cytokines, and the most important bio-marker neopterin including various neuro-psychological assessments.

SOD = experiment: Attenuation of oxidative stress: SOD; parameters: SOD, Brain / SOD, Heart / SOD, Liver / SOD, Kidney: unit not given here; settings: H.G. animals; standard drug
Protocol: as §1, with “Attenuation” for “Reduction in hypertrophy”, “Oxidative Stress Following Treatment” for “Adipocyte on Treated”, “Formulation—Restriction of SOD” for “Formulation”

Creatinine, Urea = experiment: Effect on renal function; settings: H.G. animals; standard drug
Protocol: as §1, with “Effect” for “Reduction in hypertrophy”, “of” for “of Adipocyte on Treated with”, “Formulation on Renal Function” for “Formulation”

[1] = test system: streptozotocin (STZ) induced diabetes animal model; experiment: Anti-hyperglycemic activity, weekly assessment of plasma glucose; settings: H.G. animals, standard drug
Protocol: as §1, with “mellitus.” for “mellitus. Reduction in hypertrophy of Adipocyte on Treated with Test Formulation”
Low dose=100 mg/kg; High dose=200 mg/kg

Adiponectin = Adiponectin enhancing property in experimental diabetes; settings: H.G. animals, standard drug
Protocol: as §1, with “Adiponectin Enhancing Property of Berberis aristata” for “Reduction”, “Experimental Diabetes” for “hypertrophy of Adipocyte on Treated with Test Formulation”

Effect on body weight = settings: H.G. animals, standard drug, in g (unit assumed)
Protocol: as §2

Structure (SMILES) | Adipocyte cell area (Adipocyte) [μm] | TBARS formation, Brain (TBARS) | TBARS formation, Heart (TBARS) | TBARS formation, Kidney (TBARS) | TBARS formation, Liver (TBARS) | TBARS formation, Pancrease (TBARS) | HDL-c (HDL-c, VLDL-c, LDL-c) | LDL-c (HDL-c, VLDL-c, LDL-c) | VLDL-c (HDL-c, VLDL-c, LDL-c) | SOD, Brain (SOD) | SOD, Heart (SOD) | SOD, Kidney (SOD) | SOD, Liver (SOD) | SOD, Pancrease (SOD) | Creatinine (Creatinine, Urea) [mg/dL] | Urea (Creatinine, Urea) [mg/dL] | Plasma glucose ([1]; 7th Day, in mg/dL) | Plasma glucose ([1]; 14th Day, in mg/dL) | Adiponectin (Adiponectin; 7th day) [pg/mL] | Adiponectin (Adiponectin; 14th Day) [pg/mL] | other results
CN(C)C(=N)N=C(N)N [Metformin] | 146.24 ± 10.85 | 48.08 ± 3.42 | 62.33 ± 4.81 | 56.74 ± 5.07 | 80.83 ± 9.17 | 83.17 ± 7.24 | 27.68 ± 3.51 | 41.38 ± 4.26 | 22.10 ± 3.15 | 19.83 ± 3.56 | 14.33 ± 5.13 | 16.00 ± 2.37 | 15.33 ± 0.86 | 7.01 ± 0.46 | 3.18 ± 0.05 | 45.45 ± 5.25 | 148.67 ± 8.85 | 118.83 ± 8.75 | 6.90 ± 1.87 | 6.11 ± 1.39 | Plasma glucose ([1]; 0th Day, in mg/dL): 169.83 ± 10.03; Body weight (Effect on body weight; 0th Day): 207.25 ± 6.44
CCc1ccc(CCOc2ccc(CC3SC(=O)NC3=O)cc2)nc1 (stereo not drawn) [Pioglitazone] | 136.31 ± 13.53 | 52.66 ± 3.55 | 61.83 ± 4.52 | 56.33 ± 7.93 | 82.50 ± 2.84 | 87.67 ± 7.41 | 31.44 ± 2.85 | 35.11 ± 7.29 | 17.86 ± 2.05 | 19.33 ± 3.66 | 15.83 ± 5.83 | 16.67 ± 1.86 | 13.50 ± 1.76 | 6.91 ± 0.22 | 3.20 ± 0.09 | 48.00 ± 2.00 | 153.83 ± 15.68 | 140.17 ± 6.25 | 7.13 ± 2.10 | 8.02 ± 2.01 | Anti-atherogenic index (HDL-c, VLDL-c, LDL-c): 10.02 ± 5.23; Atherogenic Index (HDL-c, VLDL-c, LDL-c): 2.20 ± 0.35; Plasma glucose ([1]; 0th Day): 170.17 ± 12.55; Body weight (Effect on body weight; 0th Day): 200.00 ± 4.65; Body weight (Effect on body weight; 7th Day): 178.80 ± 4.00; Body weight (Effect on body weight; 14th Day): 169.13 ± 2.84
